# Reference: publication PMC6562126, “Identification and characterization of a carnitine transporter in Acinetobacter baumannii” (MicrobiologyOpen, 2018)
# Tests used:
# Aci01347 [1] = target: T1, Aci01347 (Acinetobacter baumannii, UniProt D0C9N4); assay: […]-choline uptake in E. coli MKH13 expressing Aci01347; type: cell-based; conditions: 500 µM substrate; KPi 25 mM pH 7.5, 0.2 osmol/kg, 37 °C, glucose-energised cells; labelled compound
# T1 construct: gene HMPREF0010_01347; N-terminal His6 tag, pBAD/HisA; expressed in E. coli MKH13 (no compatible solute transporters)
# T1 sequence (D0C9N4 1-550): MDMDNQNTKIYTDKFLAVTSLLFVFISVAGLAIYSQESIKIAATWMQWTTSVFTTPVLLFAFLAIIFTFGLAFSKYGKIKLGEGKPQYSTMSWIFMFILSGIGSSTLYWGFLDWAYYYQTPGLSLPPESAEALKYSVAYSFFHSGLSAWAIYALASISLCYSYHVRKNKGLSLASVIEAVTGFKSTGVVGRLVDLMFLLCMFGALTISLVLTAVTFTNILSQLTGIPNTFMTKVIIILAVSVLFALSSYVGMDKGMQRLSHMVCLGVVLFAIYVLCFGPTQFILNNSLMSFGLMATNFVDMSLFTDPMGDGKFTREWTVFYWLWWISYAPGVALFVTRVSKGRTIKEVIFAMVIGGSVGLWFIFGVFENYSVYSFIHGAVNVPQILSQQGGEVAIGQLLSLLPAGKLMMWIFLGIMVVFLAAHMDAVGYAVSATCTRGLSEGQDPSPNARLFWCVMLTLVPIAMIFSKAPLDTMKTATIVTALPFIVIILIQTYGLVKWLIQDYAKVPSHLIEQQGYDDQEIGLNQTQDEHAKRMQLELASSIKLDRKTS
# Aci01347 [2] = target: T1, Aci01347; assay: competition with […]-choline uptake in E. coli MKH13 expressing Aci01347; type: cell-based; conditions: read-out: % inhibition at 0.5 mM
smiles,measurement,setting,value
"C[N+](C)(C)CCO [choline, 2-hydroxyethyl trimethylammonium chloride]",[14C]-choline uptake in E. coli MKH13 expressing Aci01347,Aci01347 [1],These data demonstrate that Aci01347 translocates choline.
O=C(O)[C@@H]1CCCN1 [proline],inhibition at 500 µM,Aci01347 [2],4.6%
CC1=NCC[C@@H](C(=O)O)N1 [ectoine],inhibition at 500 µM,Aci01347 [2],9.2%
C[N+]1(C)CCC[C@H]1C(=O)[O-] [proline betaine],inhibition at 500 µM,Aci01347 [2],2.4%
C[N+](C)(C)CC(=O)[O-] [glycine betaine],inhibition at 500 µM,Aci01347 [2],14.5%
